Test results from patent US6642251B1, “Geometrically restricted 2-indolinone derivatives as modulators of protein kinase activity” (Sugen, Inc., priority 1998, dated 2003).

Columns and labels:
src protein kinase = biological target: T1, src protein kinase (Gallus gallus, UniProt P00523); test: Biochemical src assay (bio SRC); for bio SRC, outcome of primary assay: key: DNH = did not hit in primary assay
T1 construct: made in house; host or cells: Schizosaccharomyces pombe strain SP200
Procedure: This assay is used to determine src protein kinase activity measuring phosphorylation of a biotinylated peptide as the readout.
a. Yeast transformed with src (Sugen, Inc., Redwood City, Calif.).
1. Coat ELISA plate with 0.5 μg/well anti-src mab in 100 μl of pH 9.6 sodium carbonate buffer; hold at 4° C. overnight.
2. Wash wells once with PBS.
3. Block plate with 0.15 ml 5% milk in PBS for 30 min. at room temperature.
4. Wash plate 5× with PBS.
5. Add 10 μg/well of src transformed yeast lysates diluted in Lysis Buffer (0.1 ml total volume per well). (Amount of lysate may vary between batches.) Shake plate for 20 minutes at room temperature.
1. 4G10 plate: coat 0.5 μg/well 4G10 in 100 μl PBS overnight at 4° C. and block with 150 μl of 5% milk in PBS for 30 minutes at room temperature.
1. Remove unbound proteins.from plates and wash plates 5× with PBS.
2. Add 0.08 ml Kinase Reaction Mixture per well (containing 10 μl of 10×-Kinase Buffer and 10 μM (final concentration) biotin-EEEYEEYEEEYEEEYEEEY per well diluted in water.
3. Add 10 μl of compound diluted in water containing 10% DMSO and pre-incubate for 15 minutes at room temperature.
4. Start kinase reaction by adding 10 μl/well of 0.05 mM ATP in water (5 μM ATP final).
5. Shake ELISA plate for 15 min. at room temperature.
6. Stop kinase reaction by adding 10 μl of 0.5 M EDTA per well.
7. Transfer 90 μl supernatant to a blocked 4G10 coated ELISA plate.
8. Incubate for 30 min. while shaking at room temperature.
9. Wash plate 5× with TBST.
10. Incubate with Vectastain ELITE ABC reagent (100 μl/well) for 30 min. at room temperature.
11. Wash the wells 5× with TBST.
12. Develop with Turbo TMB.

Pyk2 = Pyk2 (Homo sapiens, UniProt Q14289); test: Pyk2 assay; type: biochemical; for Pyk2, outcome of primary assay: key: DNH = did not hit in primary assay
IGF-1 receptor = biological target: T2, IGF-1 receptor (Homo sapiens, UniProt P08069); test: Cellular IGF-1 receptor assay (cell IGF); type: cell-based; for cell IGF, outcome of primary assay: key: DNH = did not hit in primary assay
T2 construct: expressed in transfected cells; host or cells: NIH3T3/IGF-1R
Procedure: The following protocol may be used to measure phosphotyrosine level on IGF-1 receptor, which indicates IGF-1 receptor tyrosine kinase activity.
a. The cell line used in this assay is 3T3/IGF-1R, a cell line genetically engineered to overexpresses IGF-1 receptor.
2. […] Incubate for 1 day then replace medium to serum-free medium (90/μl) and incubate in 5% CO2 and 37° C. overnight.
2. Remove the coating solution, and replace with 100 μl Blocking Buffer, and shake for 30 minutes. Remove the blocking buffer and wash the plate just before adding lysate.
1. The drugs are tested under serum-free condition.
2. Dilute drug stock (in 100% DMSO) 1:10 with DMEM in 96-well poly-propylene plate, and transfer 10 μl/well of this solution to the cells to achieve final drug dilution 1:100, and final DMSO concentration of 1.0%. Incubate the cells in 5% CO2 at 37° C. for 2 hours.
3. Prepare fresh cell lysis buffer (HNTG*)
4. After drug incubation for two hours, transfer 10 μl/well of 200 nM IGF-1 Ligand in PBS to the cells (Final Conc. is 20 nM), and incubate at 5% CO2 at 37° C. for 10 minutes.
5. Remove media and add 100 μl/well HNTG* and shake for 10 minutes. Look at cells under microscope to see if they are adequately lysed.
6. Use a 12-channel pipette to scrape the cells from the plate, and homogenize the lysate by repeated aspiration and dispensing. Transfer all the lysate to the antibody coated ELISA plate, and shake for 1 hour.
7. Remove the lysate, wash the plate, transfer anti-pTyr (1:3,000 with TBST) 100 μl/well, and shake for 30 minutes.
8. Remove anti-pTyr, wash the plate, transfer TAGO (1:3,000 with TBST) 100 μl/well, and shake for 30 minutes.
9. Remove detection antibody, wash the plate, and transfer fresh ABTS/H2O2 (1.2 μl H2O2 to 10 ml ABTS) 100 μl/well to the plate to start color development.
10. Measure OD at 410 nm with a reference wavelength of 630 nm in Dynatec MR5000.

EGFR = EGFR (Homo sapiens, UniProt P00533); test: Biochemical EGFR assay (bio EGFR), ELISA; parameters: A431 cell lysate (Screening Lab, SUGEN, Inc.); endogenous in cells; host or cells: A431; settings: 50% inhibition of target PTK activity; read-out: bio EGFR (Page 5) IC50
Procedure: This assay measures the in vitro kinase activity of EGFR using ELISA.
6. A431 cell lysate (Screening Lab, SUGEN, Inc.)
1. Coat Corning 96 well ELISA plates with 0.5 μg […] in
100 μl PBS per well, store overnight at 4° C.
2. Remove unbound SUMO1 from wells by inverting plate to remove liquid. Wash 1× with dH2O. Pat the plate on a paper towel to remove excess liquid.
(§1) 3. Add 150 μl of Blocking Buffer to each well. Incubate for 30 min. at room temperature with shaking.
(§2) 4. Wash plate 3× with deionized water, then once with TBST. Pat plate on a paper towel to remove excess liquid and bubbles.
5. Dilute lysate in PBS (7 μg lysate/100 μl PBS).
(§3) 6. Add 100 μl of diluted lysate to each well. Shake at room temperature for 60 min.
(§4) 7. Wash plates as described in 4, above.
8. Add 120 μl TBS to ELISA plate containing captured EGFR.
9. Dilute test compound 1:10 in TBS in 96-well polypropylene plates (ie. 10 μl compound+90 μl TBS).
10. Add 13.5 μl diluted test compound to ELISA plate.
(§5) 11. Incubate for 30 minutes while shaking at room temperature.
13. After 5 minutes, stop reaction by adding 16.5 μl of 200 mM EDTA (pH 8.0) to each well, shaking continuously. After the EDTA has been added, shake for 1 min.
(§6) 14. Wash 4× with deionized water, twice with TBST.
15. Add 100 μl anti-phosphotyrosine (1:3000 dilution.in TBST) per well. Incubate 30-45 min. at room temperature, with shaking.
(§7) 16. Wash as described in 4, above.
17. Add 100 μl Biosource Goat anti-rabbit IgG peroxidase conjugate (1:2000 dilution in TBST) to each well. Incubate 30 min. at room temperature, with shaking.
(§8) 18. Wash as described in 4, above.
(§9) 19. Add 100 μl of ABTS/H2O2 solution to each well.
20. Incubate 5 to 10 minutes with shaking. Remove any bubbles.
(§10) 21. If necessary stop reaction with the addition of 100 μl 0.2 M HCl per well.
22. Read assay on Dynatech MR7000 ELISA reader. Test Filter: 410 nM Reference Filter: 630 nM

PDGFR = biological target: T3, PDGFR (Homo sapiens, UniProt P09619); test: Biochemical PDGFR assay (bio PDGFR), ELISA; settings: 50% inhibition of target PTK activity; read-out: bio PDGFR IC50
T3 construct: expressed in transfected cells; host or cells: NIH 3T3
Procedure: This assay measures the in vitro kinase activity of PDGFR using ELISA.
6. PDGFR-β expressing NIH 3T3 cell lysate (Screening Lab, SUGEN, Inc.).
1. Coat Corning 96 well ELISA plates with 0.5 μg 28D4C10 in 100 μl PBS per well, store overnight at 4° C.
2. Remove unbound 28D4C10 from wells by inverting plate to remove liquid. Wash 1× with dH2O. Pat the plate on a paper towel to remove excess liquid.
as §1, §2
5. Dilute lysate in HNTG (10 μg lysate/100 μl HNTG)
as §3, §4
8. Add 80 μl working kinase buffer mix to ELISA plate containing captured PDGFR.
10. Add 10 μl diluted test compound to ELISA plate.
as §5
12. Add 10 μl ATP directly to all wells except negative control well (final well volume should be approximately 100 μl with 20 μM ATP in each well.) Incubate 30 minutes while shaking.
13. After 30 minutes, stop reaction by adding 10 μl of 200 mM EDTA (pH 8.0) to each well.
as §6
15. Add 100 μl anti-phosphotyrosine (1:3000 dilution in TBST) per well. Incubate 30-45 min. at room temperature, with shaking.
as §7
17. […] Incubate 30 min. at room temperature, with shaking.
as §8, §9
20. Incubate 10 to 30 minutes with shaking. Remove any bubbles.
as §10

T3 sequence (P09619 33-1106, species assumed): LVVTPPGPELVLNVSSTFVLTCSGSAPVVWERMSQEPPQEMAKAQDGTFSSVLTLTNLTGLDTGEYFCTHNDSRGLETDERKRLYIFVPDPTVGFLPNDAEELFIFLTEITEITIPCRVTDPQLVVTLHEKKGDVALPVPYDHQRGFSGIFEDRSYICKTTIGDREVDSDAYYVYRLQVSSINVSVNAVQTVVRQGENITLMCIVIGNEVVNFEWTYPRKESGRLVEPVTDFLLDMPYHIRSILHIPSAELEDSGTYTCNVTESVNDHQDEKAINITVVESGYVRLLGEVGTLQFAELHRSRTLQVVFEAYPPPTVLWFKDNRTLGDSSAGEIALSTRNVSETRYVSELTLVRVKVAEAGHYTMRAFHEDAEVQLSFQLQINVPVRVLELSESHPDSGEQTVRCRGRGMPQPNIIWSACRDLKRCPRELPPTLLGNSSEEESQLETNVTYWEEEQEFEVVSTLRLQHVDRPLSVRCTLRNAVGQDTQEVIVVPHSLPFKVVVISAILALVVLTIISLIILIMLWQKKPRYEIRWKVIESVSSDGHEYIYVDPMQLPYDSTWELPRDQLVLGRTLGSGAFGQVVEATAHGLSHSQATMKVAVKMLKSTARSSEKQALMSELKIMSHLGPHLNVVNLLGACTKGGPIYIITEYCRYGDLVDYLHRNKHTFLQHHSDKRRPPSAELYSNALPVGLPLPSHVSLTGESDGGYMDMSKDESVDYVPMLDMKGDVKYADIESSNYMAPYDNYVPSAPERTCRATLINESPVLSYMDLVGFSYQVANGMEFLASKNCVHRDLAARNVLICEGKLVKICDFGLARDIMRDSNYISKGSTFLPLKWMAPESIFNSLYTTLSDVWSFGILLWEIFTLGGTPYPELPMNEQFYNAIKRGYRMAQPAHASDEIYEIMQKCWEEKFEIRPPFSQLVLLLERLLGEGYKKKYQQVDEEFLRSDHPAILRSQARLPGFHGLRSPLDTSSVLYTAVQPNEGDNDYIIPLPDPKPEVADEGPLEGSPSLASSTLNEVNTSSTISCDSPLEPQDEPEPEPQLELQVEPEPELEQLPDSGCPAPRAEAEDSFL
Chain of EGFR (P00533 25-1210): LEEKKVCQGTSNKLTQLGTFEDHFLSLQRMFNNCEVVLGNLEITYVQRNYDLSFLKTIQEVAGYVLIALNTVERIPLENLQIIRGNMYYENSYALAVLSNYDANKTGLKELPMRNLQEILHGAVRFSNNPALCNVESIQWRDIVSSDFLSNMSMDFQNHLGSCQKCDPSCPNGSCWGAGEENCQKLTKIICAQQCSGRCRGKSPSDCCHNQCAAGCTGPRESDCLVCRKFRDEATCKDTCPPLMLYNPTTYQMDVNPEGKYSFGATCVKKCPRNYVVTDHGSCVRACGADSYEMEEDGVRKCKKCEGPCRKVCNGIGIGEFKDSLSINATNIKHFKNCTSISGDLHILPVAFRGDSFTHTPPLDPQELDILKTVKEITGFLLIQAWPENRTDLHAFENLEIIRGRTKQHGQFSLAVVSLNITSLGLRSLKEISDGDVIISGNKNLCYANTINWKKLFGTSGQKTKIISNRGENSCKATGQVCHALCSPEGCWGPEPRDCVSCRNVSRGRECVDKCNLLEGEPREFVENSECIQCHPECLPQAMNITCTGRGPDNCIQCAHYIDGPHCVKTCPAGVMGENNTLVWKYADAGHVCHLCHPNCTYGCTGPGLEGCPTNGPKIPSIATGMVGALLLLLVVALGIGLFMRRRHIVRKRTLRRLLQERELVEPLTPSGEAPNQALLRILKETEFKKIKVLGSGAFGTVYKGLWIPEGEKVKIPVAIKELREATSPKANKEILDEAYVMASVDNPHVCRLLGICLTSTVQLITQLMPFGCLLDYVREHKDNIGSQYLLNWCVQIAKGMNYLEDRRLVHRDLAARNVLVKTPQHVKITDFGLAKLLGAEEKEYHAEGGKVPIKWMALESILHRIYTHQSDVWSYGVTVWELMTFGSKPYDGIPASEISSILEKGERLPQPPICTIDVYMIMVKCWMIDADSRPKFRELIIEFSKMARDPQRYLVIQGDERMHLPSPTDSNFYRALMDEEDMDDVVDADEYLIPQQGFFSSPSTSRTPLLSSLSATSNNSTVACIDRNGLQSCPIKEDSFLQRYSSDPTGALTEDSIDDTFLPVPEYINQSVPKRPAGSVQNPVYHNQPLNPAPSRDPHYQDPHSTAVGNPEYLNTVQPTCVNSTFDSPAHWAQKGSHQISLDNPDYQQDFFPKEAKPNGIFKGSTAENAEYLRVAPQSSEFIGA
T2 sequence (P08069 31-1367): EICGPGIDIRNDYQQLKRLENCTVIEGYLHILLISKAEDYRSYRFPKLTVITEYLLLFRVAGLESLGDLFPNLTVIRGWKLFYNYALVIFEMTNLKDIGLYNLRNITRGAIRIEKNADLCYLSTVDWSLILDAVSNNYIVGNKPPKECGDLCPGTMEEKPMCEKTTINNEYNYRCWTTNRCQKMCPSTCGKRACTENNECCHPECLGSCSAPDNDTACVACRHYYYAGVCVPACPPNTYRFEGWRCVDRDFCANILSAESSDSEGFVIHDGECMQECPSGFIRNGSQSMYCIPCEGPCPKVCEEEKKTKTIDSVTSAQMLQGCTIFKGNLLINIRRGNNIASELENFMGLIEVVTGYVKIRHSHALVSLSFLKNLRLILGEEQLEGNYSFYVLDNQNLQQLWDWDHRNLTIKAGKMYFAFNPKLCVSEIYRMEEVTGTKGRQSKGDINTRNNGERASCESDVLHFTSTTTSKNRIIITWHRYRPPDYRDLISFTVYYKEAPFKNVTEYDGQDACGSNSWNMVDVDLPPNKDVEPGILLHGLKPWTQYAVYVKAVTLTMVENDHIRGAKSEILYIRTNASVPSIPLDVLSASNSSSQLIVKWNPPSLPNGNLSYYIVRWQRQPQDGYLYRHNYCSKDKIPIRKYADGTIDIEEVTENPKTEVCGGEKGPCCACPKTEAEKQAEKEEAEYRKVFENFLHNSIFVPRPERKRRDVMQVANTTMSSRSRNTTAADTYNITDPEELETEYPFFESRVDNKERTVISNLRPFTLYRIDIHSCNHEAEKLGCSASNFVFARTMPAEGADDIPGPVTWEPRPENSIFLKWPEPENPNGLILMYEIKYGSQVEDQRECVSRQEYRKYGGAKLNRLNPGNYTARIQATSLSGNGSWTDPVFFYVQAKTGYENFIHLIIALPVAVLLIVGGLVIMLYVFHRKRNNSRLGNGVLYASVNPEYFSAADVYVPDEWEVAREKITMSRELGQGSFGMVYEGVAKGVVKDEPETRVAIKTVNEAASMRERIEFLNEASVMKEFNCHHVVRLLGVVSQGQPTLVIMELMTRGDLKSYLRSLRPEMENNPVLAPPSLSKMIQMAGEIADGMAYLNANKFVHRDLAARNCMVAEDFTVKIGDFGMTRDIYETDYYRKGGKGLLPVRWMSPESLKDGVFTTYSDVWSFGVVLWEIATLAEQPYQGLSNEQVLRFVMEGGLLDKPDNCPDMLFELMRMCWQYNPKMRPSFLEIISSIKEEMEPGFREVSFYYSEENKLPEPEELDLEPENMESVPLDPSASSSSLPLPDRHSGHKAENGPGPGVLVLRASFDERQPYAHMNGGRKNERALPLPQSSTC
Chain of Pyk2 (Q14289 whole entry, species assumed): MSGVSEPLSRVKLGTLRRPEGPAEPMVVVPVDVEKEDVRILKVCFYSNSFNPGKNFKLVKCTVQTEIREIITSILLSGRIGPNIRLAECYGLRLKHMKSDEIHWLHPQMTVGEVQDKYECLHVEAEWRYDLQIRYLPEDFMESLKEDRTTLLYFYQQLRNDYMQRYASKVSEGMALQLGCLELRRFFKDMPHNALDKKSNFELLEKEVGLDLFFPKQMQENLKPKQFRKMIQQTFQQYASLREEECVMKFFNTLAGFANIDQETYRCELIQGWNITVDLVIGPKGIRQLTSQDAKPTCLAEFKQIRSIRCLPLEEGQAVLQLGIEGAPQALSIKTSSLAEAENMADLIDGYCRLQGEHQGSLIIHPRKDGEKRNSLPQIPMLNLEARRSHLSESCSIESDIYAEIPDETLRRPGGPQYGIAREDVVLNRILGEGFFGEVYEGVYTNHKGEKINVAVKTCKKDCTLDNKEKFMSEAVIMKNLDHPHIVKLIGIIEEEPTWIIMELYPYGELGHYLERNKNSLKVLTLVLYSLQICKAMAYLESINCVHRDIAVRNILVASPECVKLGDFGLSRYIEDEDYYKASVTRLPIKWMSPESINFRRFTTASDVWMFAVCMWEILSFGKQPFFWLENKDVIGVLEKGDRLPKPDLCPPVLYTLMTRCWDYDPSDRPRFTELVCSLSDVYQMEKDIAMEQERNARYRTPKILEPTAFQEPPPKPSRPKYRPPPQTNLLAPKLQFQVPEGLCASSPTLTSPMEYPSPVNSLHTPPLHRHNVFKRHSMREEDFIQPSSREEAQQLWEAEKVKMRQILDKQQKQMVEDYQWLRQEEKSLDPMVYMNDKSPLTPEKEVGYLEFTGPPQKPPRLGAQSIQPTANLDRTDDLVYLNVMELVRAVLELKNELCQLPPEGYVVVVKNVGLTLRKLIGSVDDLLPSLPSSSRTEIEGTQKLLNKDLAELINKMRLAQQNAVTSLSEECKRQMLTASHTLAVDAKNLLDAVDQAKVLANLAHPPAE

Row | bio SRC, outcome of primary assay (src protein kinase; primary assay) | Pyk2, outcome of primary assay (Pyk2; primary assay) | cell IGF, outcome of primary assay (IGF-1 receptor; primary assay) | IC50 (EGFR) | IC50 (PDGFR) | IC50 (src protein kinase; 50% inhibition of target PTK activity) | IC50 (Pyk2; 50% inhibition of target PTK activity, read-out: Pyk2 IC50) | cell IGF % Inh (IGF-1 receptor; concentration not given) | SMILES
1 | DNH | DNH | DNH | > 100 µM | > 100 µM |  |  |  | COc1ccc2c(c1)/C(=C1\C(=O)Nc3ccccc31)CC2 [Compound 4, 3-(6-Methoxyindan-1-ylidene)-1,3-dihydroindol-2-one]
2 |  |  |  | > 100 µM | 5.5 µM | > 100 µM | 8.1 µM | 96.7% Inh | Nc1ccc2c(c1)CC/C2=C1/C(=O)Nc2ccccc21 [Compound 6, 3-(5-Aminoindan-1-ylidene)-1,3-dihydroindol-2-one]
